Several values for one entry are separate records, joined by “and”; a condition that tells them apart may be missing. Equal entries are not always repeated.
Tests used:
AURKB (human) = AURKB (human) (UniProt Q96GD4)
BTK (human) = BTK (human) (UniProt Q06187)
CHEK2 (human) = CHEK2 (human) (UniProt O96017)
CSNK2A1 (human) = CSNK2A1 (human) (UniProt P68400)
DYRK1A (human) = DYRK1A (human) (UniProt Q13627)
DYRK2 (human) = DYRK2 (human) (UniProt Q92630)
FGFR1 (human) = FGFR1 (human) (UniProt P11362)
IKBKB (human) = IKBKB (human) (UniProt O14920)
INSRR (human) = INSRR (human) (UniProt P14616)
MAP2K1 (human) = MAP2K1 (human) (UniProt Q02750)
MAPK13 (human) = MAPK13 (human) (UniProt O15264)
MAPK14 (human) = MAPK14 (human) (UniProt Q16539)
MAPK3 (human) = MAPK3 (human) (UniProt P27361)
MAPK8 (human) = MAPK8 (human) (UniProt P45983)
MAPKAPK5 (human) = MAPKAPK5 (human) (UniProt Q8IW41)
MKNK2 (human) = MKNK2 (human) (UniProt Q9HBH9)
MST4 (human) = MST4 (human) (UniProt Q9P289)
NEK6 (human) = NEK6 (human) (UniProt Q9HC98)
PDPK1 (human) = PDPK1 (human) (UniProt O15530)
PKN2 (human) = PKN2 (human) (UniProt Q16513)
PRKAA1 or PRKAA2 (rat) = details: accession and sequence are those of the human protein
RPS6KA3 KD1 KD2 (human) = RPS6KA3 KD1 KD2 (human) (UniProt P51812)
YES1 (human) = YES1 (human) (UniProt P07947)
CAMK2A (human) = CAMK2A (human) (UniProt Q9UQM7); experiment: KINOMEscan competition binding; details: compound 10.0 µM
CDK16 (human) = CDK16 (human) (UniProt Q00536); experiment: KINOMEscan competition binding; details: compound 10.0 µM
CSK (human) = CSK (human) (UniProt P41240); experiment: KINOMEscan competition binding; details: compound 10.0 µM
EIF2AK1 (human) = EIF2AK1 (human) (UniProt Q9BQI3); experiment: KINOMEscan competition binding; details: compound 10.0 µM
[1] = biological target: JAK1 JH2 pseudokinase (human) (UniProt P23458); experiment: KINOMEscan competition binding; details: compound 10.0 µM
[2] = system: KIT (human), P10721 [L576P]; experiment: KINOMEscan competition binding; details: compound 10.0 µM
NIM1 (human) = NIM1 (human) (UniProt Q8IY84); experiment: KINOMEscan competition binding; details: compound 10.0 µM
PHKG1 (human) = PHKG1 (human) (UniProt Q16816); experiment: KINOMEscan competition binding; details: compound 10.0 µM
PI4KB (human) = PI4KB (human) (UniProt Q9UBF8); experiment: KINOMEscan competition binding; details: compound 10.0 µM
PRKCE (human) = PRKCE (human) (UniProt Q02156); experiment: KINOMEscan competition binding; details: compound 10.0 µM
RIPK4 (human) = RIPK4 (human) (UniProt P57078); experiment: KINOMEscan competition binding; details: compound 10.0 µM
TLK2 (human) = TLK2 (human) (UniProt Q86UE8); experiment: KINOMEscan competition binding; details: compound 10.0 µM
[3] = system: BRAF (human), P15056 [V600E]; experiment: KINOMEscan competition binding; details: compound 10.0 µM

AURKB (human), sequence (Q96GD4 whole entry, looked up): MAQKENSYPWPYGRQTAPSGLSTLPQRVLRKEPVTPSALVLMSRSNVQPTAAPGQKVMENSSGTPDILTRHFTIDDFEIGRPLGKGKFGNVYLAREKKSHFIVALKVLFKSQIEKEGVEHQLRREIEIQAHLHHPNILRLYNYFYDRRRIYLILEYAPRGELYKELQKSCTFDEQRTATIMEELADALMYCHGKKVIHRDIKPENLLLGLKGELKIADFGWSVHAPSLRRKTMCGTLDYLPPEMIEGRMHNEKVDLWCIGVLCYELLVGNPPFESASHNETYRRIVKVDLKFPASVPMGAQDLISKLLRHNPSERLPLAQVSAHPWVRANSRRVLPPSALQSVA
MAPK13 (human), sequence (O15264 whole entry, looked up): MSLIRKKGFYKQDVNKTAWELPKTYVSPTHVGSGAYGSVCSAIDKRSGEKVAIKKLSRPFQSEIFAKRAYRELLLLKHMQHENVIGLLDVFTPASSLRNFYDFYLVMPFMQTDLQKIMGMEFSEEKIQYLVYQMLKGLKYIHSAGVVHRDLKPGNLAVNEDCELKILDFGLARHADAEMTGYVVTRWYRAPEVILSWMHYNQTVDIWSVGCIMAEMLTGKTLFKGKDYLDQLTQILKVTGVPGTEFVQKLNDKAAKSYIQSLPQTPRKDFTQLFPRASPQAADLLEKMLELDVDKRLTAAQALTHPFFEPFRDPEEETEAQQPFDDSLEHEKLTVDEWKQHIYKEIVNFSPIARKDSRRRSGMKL
MST4 (human), sequence (Q9P289 whole entry, looked up): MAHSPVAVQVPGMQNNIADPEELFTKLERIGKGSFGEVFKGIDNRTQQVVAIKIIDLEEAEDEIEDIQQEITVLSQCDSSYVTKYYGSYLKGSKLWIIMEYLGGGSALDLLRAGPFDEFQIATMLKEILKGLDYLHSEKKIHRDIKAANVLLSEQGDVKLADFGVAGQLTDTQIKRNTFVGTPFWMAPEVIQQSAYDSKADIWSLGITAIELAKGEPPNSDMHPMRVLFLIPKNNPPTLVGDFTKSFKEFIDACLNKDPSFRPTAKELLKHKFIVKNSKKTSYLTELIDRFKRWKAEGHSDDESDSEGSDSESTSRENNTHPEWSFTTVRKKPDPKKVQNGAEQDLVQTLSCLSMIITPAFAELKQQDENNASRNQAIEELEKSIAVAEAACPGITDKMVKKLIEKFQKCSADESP
BTK (human), sequence (Q06187 whole entry, looked up): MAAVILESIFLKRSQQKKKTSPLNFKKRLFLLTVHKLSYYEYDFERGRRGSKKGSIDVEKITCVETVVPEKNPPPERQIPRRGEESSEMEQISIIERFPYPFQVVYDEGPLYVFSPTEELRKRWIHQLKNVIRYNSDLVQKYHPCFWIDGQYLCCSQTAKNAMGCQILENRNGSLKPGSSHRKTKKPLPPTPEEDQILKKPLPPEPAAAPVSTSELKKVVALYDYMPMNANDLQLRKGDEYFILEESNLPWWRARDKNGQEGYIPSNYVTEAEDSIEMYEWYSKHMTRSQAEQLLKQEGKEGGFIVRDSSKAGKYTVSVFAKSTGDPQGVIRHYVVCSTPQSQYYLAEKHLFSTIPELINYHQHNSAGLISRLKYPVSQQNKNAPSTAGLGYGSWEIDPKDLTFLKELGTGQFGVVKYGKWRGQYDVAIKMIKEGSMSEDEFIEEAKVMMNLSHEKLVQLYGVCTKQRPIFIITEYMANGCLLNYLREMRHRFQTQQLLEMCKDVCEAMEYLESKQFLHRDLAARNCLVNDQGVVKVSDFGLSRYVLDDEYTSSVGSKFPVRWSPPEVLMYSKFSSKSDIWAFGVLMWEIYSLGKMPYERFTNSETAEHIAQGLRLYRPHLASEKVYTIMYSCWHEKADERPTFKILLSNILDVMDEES
PKN2 (human), sequence (Q16513 whole entry, looked up): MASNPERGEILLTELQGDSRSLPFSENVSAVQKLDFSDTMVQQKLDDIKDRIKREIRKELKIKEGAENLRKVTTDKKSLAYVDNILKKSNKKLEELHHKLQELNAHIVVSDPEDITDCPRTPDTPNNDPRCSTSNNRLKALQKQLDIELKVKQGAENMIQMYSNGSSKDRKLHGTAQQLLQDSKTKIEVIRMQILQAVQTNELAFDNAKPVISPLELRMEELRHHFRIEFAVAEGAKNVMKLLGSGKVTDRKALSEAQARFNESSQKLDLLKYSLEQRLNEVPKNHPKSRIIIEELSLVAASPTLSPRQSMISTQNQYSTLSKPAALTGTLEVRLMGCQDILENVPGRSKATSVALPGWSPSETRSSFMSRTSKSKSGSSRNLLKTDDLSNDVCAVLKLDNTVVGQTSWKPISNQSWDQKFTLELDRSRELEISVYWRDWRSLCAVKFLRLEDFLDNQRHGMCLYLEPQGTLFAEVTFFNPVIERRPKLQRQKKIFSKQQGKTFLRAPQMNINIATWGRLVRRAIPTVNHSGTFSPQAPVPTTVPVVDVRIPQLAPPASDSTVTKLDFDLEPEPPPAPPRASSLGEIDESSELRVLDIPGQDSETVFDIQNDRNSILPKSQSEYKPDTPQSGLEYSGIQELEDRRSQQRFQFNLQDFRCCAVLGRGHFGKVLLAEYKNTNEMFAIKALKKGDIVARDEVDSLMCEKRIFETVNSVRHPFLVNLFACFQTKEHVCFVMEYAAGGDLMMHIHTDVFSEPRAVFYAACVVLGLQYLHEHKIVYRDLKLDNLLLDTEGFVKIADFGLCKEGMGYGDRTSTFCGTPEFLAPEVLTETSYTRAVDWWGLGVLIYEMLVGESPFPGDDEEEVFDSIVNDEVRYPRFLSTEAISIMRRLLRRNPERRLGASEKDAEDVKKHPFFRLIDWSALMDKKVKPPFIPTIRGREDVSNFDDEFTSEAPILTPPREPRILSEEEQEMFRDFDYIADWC
MAPK14 (human), sequence (Q16539 whole entry, looked up): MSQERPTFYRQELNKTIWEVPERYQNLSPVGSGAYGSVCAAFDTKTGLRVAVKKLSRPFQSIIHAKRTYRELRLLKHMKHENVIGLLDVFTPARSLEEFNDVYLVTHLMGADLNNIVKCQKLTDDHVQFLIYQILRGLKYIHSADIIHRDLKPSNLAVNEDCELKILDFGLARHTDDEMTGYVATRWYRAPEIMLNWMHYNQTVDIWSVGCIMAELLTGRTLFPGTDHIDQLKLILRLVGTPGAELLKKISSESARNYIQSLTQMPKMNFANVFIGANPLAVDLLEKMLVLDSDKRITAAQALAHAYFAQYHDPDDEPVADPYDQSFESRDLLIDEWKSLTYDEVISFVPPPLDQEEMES
CSNK2A1 (human), sequence (P68400 whole entry, looked up): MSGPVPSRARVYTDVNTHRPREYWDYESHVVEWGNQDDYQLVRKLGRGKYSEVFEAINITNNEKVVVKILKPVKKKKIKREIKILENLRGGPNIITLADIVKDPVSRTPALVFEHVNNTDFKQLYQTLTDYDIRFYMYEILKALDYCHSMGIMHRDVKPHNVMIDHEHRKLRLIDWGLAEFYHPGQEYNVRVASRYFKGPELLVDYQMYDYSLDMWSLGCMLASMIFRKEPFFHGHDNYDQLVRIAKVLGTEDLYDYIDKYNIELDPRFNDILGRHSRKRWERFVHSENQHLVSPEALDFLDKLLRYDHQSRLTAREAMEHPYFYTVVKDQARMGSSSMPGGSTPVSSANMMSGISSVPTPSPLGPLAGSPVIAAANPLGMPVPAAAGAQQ
IKBKB (human), sequence (O14920 whole entry, looked up): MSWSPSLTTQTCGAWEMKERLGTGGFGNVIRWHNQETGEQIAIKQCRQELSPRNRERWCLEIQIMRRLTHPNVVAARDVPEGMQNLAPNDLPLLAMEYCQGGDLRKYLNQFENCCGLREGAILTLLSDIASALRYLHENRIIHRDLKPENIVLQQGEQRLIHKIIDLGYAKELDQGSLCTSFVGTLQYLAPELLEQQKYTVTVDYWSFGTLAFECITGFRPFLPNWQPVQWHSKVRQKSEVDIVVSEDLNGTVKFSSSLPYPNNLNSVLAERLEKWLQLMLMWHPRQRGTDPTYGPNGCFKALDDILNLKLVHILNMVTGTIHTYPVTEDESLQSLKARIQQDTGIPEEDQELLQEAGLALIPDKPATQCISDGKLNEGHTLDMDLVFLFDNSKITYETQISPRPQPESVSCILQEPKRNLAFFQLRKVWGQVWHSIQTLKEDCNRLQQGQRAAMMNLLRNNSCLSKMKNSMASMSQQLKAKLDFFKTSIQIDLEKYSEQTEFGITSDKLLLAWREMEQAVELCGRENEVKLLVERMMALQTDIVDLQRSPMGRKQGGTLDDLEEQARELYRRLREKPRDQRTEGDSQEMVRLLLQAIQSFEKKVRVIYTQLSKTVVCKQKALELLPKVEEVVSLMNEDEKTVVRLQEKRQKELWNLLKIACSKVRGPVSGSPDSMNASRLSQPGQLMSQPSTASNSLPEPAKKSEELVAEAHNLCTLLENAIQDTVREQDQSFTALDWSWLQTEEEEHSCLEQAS
CHEK2 (human), sequence (O96017 whole entry, looked up): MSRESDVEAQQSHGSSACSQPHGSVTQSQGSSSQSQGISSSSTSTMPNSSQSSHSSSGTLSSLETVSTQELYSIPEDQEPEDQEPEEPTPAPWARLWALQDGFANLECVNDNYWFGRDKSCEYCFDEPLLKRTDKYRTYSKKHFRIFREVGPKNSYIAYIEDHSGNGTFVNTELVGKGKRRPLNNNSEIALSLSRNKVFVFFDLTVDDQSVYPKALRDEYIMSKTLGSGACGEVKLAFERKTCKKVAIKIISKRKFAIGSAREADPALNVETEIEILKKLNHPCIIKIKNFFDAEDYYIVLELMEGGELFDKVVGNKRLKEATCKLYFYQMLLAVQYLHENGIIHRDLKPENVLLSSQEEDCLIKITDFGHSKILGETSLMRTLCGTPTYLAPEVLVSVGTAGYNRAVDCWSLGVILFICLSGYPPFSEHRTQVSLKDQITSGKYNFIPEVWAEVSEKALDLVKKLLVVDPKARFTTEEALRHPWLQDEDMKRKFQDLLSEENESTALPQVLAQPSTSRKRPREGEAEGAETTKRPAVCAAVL

CCC(=O)N1CCN(c2ccc(-n3c(=O)ccc4cnc5ccc(-c6cnc7ccccc7c6)cc5c43)cc2C(F)(F)F)CC1
per cent of control (AURKB (human); compound 1.0 µM): 107%
per cent of control (AURKB (human); compound 10.0 µM): 90%
per cent of control (BTK (human); compound 1.0 µM): 104%
per cent of control (BTK (human); compound 10.0 µM): 56%
per cent of control (CHEK2 (human); compound 1.0 µM): 90%
per cent of control (CHEK2 (human); compound 10.0 µM): 83%
per cent of control (CSNK2A1 (human); compound 10.0 µM): 95%
per cent of control (DYRK1A (human); compound 1.0 µM): 92%
per cent of control (DYRK1A (human); compound 10.0 µM): 75%
per cent of control (DYRK2 (human); compound 1.0 µM): 99%
per cent of control (DYRK2 (human); compound 10.0 µM): 99%
per cent of control (FGFR1 (human); compound 1.0 µM): 110%
per cent of control (FGFR1 (human); compound 10.0 µM): 79%
per cent of control (IKBKB (human); compound 1.0 µM): 109%
per cent of control (IKBKB (human); compound 10.0 µM): 63%
per cent of control (INSRR (human); compound 10.0 µM): 73%
per cent of control (MAP2K1 (human); compound 1.0 µM): 69%
per cent of control (MAP2K1 (human); compound 10.0 µM): 22%
per cent of control (MAPK13 (human); compound 1.0 µM): 106%
per cent of control (MAPK13 (human); compound 10.0 µM): 97%
per cent of control (MAPK14 (human); compound 1.0 µM): 95%
per cent of control (MAPK14 (human); compound 10.0 µM): 99%
per cent of control (MAPK3 (human); compound 1.0 µM): 99%
per cent of control (MAPK3 (human); compound 10.0 µM): 96%
per cent of control (MAPK8 (human); compound 1.0 µM): 98%
per cent of control (MAPKAPK5 (human); compound 1.0 µM): 118%
per cent of control (MAPKAPK5 (human); compound 10.0 µM): 49%
per cent of control (MKNK2 (human); compound 1.0 µM): 112%
per cent of control (MKNK2 (human); compound 10.0 µM): 96%
per cent of control (MST4 (human); compound 1.0 µM): 96%
per cent of control (MST4 (human); compound 10.0 µM): 89%
per cent of control (NEK6 (human); compound 1.0 µM): 100%
per cent of control (PDPK1 (human); compound 1.0 µM): 100% and 117%
per cent of control (PDPK1 (human); compound 10.0 µM): 98% and 101%
per cent of control (PKN2 (human); compound 1.0 µM): 97%
per cent of control (PKN2 (human); compound 10.0 µM): 114%
per cent of control (PRKAA1 or PRKAA2 (rat); compound 1.0 µM): 78%
per cent of control (PRKAA1 or PRKAA2 (rat); compound 10.0 µM): 93%
per cent of control (RPS6KA3 KD1 KD2 (human); compound 1.0 µM): 96%
per cent of control (RPS6KA3 KD1 KD2 (human); compound 10.0 µM): 81%
per cent of control (YES1 (human); compound 1.0 µM): 113%
per cent of control (YES1 (human); compound 10.0 µM): 78%
kinase still bound, per cent of control (CAMK2A (human)): 93%
per cent of control (CDK16 (human)): 91%
kinase still bound, per cent of control (CSK (human)): 71%
kinase still bound, per cent of control (EIF2AK1 (human)): 57%
kinase still bound, per cent of control [1]: 76%
kinase still bound, per cent of control [2]: 48%
kinase still bound, per cent of control (NIM1 (human)): 84%
kinase still bound, per cent of control (PHKG1 (human)): 100%
kinase still bound, per cent of control (PI4KB (human)): 96%
kinase still bound, per cent of control (PRKCE (human)): 86%
kinase still bound, per cent of control (RIPK4 (human)): 100%
kinase still bound, per cent of control (TLK2 (human)): 100%

COC(=O)Nc1ccc(-c2nc(N3CCOCC3)c3cnn(C4CCN(C(=O)OC)CC4)c3n2)cc1
per cent of control (AURKB (human); compound 1.0 µM): 91%
per cent of control (AURKB (human); compound 10.0 µM): 100%
per cent of control (BTK (human); compound 1.0 µM): 116%
per cent of control (BTK (human); compound 10.0 µM): 99%
per cent of control (CHEK2 (human); compound 1.0 µM): 86%
per cent of control (CHEK2 (human); compound 10.0 µM): 88%
per cent of control (CSNK2A1 (human); compound 1.0 µM): 99%
per cent of control (CSNK2A1 (human); compound 10.0 µM): 92%
per cent of control (DYRK1A (human); compound 1.0 µM): 111%
per cent of control (DYRK1A (human); compound 10.0 µM): 90%
per cent of control (DYRK2 (human); compound 1.0 µM): 92%
per cent of control (DYRK2 (human); compound 10.0 µM): 96%
per cent of control (FGFR1 (human); compound 1.0 µM): 95%
per cent of control (FGFR1 (human); compound 10.0 µM): 109%
per cent of control (IKBKB (human); compound 1.0 µM): 97%
per cent of control (IKBKB (human); compound 10.0 µM): 100%
per cent of control (INSRR (human); compound 1.0 µM): 88%
per cent of control (INSRR (human); compound 10.0 µM): 99%
per cent of control (MAP2K1 (human); compound 1.0 µM): 82%
per cent of control (MAP2K1 (human); compound 10.0 µM): 79%
per cent of control (MAPK13 (human); compound 1.0 µM): 14%
per cent of control (MAPK13 (human); compound 10.0 µM): 10%
per cent of control (MAPK14 (human); compound 1.0 µM): 97%
per cent of control (MAPK14 (human); compound 10.0 µM): 88%
per cent of control (MAPK3 (human); compound 1.0 µM): 90%
per cent of control (MAPK3 (human); compound 10.0 µM): 97%
per cent of control (MAPK8 (human); compound 1.0 µM): 93%
per cent of control (MAPK8 (human); compound 10.0 µM): 91%
per cent of control (MAPKAPK5 (human); compound 1.0 µM): 98%
per cent of control (MAPKAPK5 (human); compound 10.0 µM): 74%
per cent of control (MKNK2 (human); compound 1.0 µM): 115%
per cent of control (MKNK2 (human); compound 10.0 µM): 93%
per cent of control (MST4 (human); compound 1.0 µM): 88%
per cent of control (MST4 (human); compound 10.0 µM): 82%
per cent of control (NEK6 (human); compound 1.0 µM): 96%
per cent of control (NEK6 (human); compound 10.0 µM): 87%
per cent of control (PDPK1 (human); compound 1.0 µM): 98% and 100%
per cent of control (PDPK1 (human); compound 10.0 µM): 80% and 101%
per cent of control (PKN2 (human); compound 1.0 µM): 117%
per cent of control (PKN2 (human); compound 10.0 µM): 101%
per cent of control (PRKAA1 or PRKAA2 (rat); compound 1.0 µM): 78%
per cent of control (PRKAA1 or PRKAA2 (rat); compound 10.0 µM): 82%
per cent of control (RPS6KA3 KD1 KD2 (human); compound 1.0 µM): 88%
per cent of control (RPS6KA3 KD1 KD2 (human); compound 10.0 µM): 87%
per cent of control (YES1 (human); compound 1.0 µM): 109%
per cent of control (YES1 (human); compound 10.0 µM): 113%
kinase still bound, per cent of control [3]: 81%
kinase still bound, per cent of control (CAMK2A (human)): 95%
per cent of control (CDK16 (human)): 100%
kinase still bound, per cent of control (CSK (human)): 98%
kinase still bound, per cent of control (EIF2AK1 (human)): 56%
kinase still bound, per cent of control [1]: 74%
kinase still bound, per cent of control [2]: 100%
kinase still bound, per cent of control (NIM1 (human)): 100%
kinase still bound, per cent of control (PHKG1 (human)): 81%
kinase still bound, per cent of control (PI4KB (human)): 100%
kinase still bound, per cent of control (PRKCE (human)): 94%
kinase still bound, per cent of control (RIPK4 (human)): 90%
kinase still bound, per cent of control (TLK2 (human)): 96%
